Data set [1] in a line: Apparent volume of distribution during terminal phase in RjOrl:Swiss (CD-1) mouse plasma at 30 mg/kg, po. The format is ADME, organism-based. The conditions noted are these: read-out: Vz/F.
In data set [2] the target is Free fatty acid receptor 1 (Mus musculus) (UniProt Q76JU9). In words: Partial agonist activity at mouse free fatty acid receptor 1 expressed in HEK293 cells assessed as inositol phosphate 1 accumulation incubated for 30 mins. The format is functional, cell-based.
Sequence of Free fatty acid receptor 1 (Mus musculus) (Q76JU9 whole entry): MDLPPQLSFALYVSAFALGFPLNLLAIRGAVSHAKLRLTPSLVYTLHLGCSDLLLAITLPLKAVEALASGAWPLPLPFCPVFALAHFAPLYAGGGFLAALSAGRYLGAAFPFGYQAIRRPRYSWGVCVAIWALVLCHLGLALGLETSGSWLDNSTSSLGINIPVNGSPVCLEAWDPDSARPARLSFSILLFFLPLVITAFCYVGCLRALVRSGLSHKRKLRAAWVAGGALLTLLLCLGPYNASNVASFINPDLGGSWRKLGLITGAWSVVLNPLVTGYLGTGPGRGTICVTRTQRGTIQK
Data set [3] in a line: AUC (0 to infinity) in RjOrl:Swiss (CD-1) mouse plasma at 30 mg/kg, po. It counts as ADME, organism-based. Further details: dose 30 mg/kg, time infinity, route oral.
For data set [4], the target named is Free fatty acid receptor 1 (Homo sapiens) (UniProt O14842). In words: Partial agonist activity at human free fatty acid receptor 1 expressed in HEK293 cells assessed as inositol phosphate 1 accumulation incubated for 30 mins. The format is functional, cell-based.
Sequence of Free fatty acid receptor 1 (Homo sapiens) (O14842 whole entry): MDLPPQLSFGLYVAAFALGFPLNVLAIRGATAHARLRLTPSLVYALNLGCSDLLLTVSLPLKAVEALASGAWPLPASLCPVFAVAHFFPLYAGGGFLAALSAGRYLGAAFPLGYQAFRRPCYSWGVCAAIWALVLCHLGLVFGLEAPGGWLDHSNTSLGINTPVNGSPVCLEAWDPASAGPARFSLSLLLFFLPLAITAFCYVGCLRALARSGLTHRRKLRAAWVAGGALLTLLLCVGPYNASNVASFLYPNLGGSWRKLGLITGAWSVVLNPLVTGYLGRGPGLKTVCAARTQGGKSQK
The target of data set [5] is T1, Peroxisome proliferator-activated receptor alpha (Homo sapiens) (UniProt Q07869).
T1 sequence (whole entry): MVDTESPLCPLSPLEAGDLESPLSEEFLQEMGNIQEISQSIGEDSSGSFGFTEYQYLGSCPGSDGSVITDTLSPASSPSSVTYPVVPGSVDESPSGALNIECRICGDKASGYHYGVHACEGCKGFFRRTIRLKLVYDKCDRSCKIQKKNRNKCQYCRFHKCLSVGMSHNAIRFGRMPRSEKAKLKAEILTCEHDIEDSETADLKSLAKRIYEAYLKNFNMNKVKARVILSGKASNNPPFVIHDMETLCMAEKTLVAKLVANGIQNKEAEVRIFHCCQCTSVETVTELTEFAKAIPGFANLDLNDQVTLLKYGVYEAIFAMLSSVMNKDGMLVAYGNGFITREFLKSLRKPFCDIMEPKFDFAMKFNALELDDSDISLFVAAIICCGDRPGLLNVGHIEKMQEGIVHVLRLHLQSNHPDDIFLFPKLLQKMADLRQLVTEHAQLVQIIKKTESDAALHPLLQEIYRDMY
In words: Transactivation of human PPARalpha expressed in African green monkey COS7 cells at 10 uM incubated overnight by dual-glo luciferase reporter assay. The settings on record: COS-7. It counts as cell-based.

In data set [6] the target is T2, Peroxisome proliferator-activated receptor delta (Homo sapiens, UniProt Q03181).
T2 sequence (Q03181 whole entry): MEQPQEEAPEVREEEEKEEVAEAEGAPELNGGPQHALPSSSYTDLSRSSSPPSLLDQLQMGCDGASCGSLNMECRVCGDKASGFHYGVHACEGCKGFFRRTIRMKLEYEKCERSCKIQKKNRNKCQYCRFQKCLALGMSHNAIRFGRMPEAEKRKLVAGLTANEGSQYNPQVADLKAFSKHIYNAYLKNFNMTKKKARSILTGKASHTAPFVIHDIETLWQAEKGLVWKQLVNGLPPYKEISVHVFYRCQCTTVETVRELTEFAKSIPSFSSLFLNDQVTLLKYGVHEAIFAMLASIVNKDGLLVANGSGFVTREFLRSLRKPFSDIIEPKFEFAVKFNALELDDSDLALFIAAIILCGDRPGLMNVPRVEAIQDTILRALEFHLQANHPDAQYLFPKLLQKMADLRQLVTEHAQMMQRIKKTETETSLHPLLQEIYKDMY
As to the kind of experiment: Transactivation of human PPARdelta expressed in African green monkey COS7 cells incubated overnight by dual-glo luciferase reporter gene assay. The format is cell-based. The settings on record: cos-7.

The nature of data set [7]: Apparent oral clearance in RjOrl:Swiss (CD-1) mouse plasma at 30 mg/kg. It counts as ADME, organism-based.
Data set [8] is described as follows: Solubility of the compound in water by microplate reader analysis. The format is physicochemical.
In data set [9] the test system is Mus musculus. In words: In vivo transactivation of PPARgamma in C57BL/6JRj mouse assessed as increase in sEH expression in liver at 30 mg/kg/day, po administered with drinking water after 2 weeks by qPCR method. The format is functional, organism-based. (In general: Quantitative PCR measures a nucleic acid by following its amplification.)
Data set [10] in a line: Cmax in RjOrl:Swiss (CD-1) mouse plasma at 30 mg/kg, po. It counts as ADME, organism-based. Also on record: dose 30 mg/kg, route oral.
Data set [11] concerns Mus musculus. In words: Upregulation of PPARgamma gene expression in C57BL/6JRj mouse liver at 30 mg/kg/day, po administered with drinking water measured after 2 weeks by qPCR method. It counts as functional, organism-based.
The test system of data set [12] is Mus musculus. As to the kind of experiment: In vivo transactivation of PPARgamma in C57BL/6JRj mouse assessed as increase in PGC-1alpha expression in liver at 30 mg/kg/day, po administered with drinking water measured after 2 weeks by qPCR method. The format is functional, organism-based.
The nature of data set [13]: Drug level in supernatant of African green monkey COS7 cells treated with Ethyl 2-Ethyl 3-[4-(N-(4-methoxy(2-trifluoromethyl)benzyl)-benzamide)]propanoate at 10 uM after 12 hrs by HPLC analysis. It counts as ADME, cell-based. The settings on record: chlorocebus aethiops, cos-7, 12 h.
Data set [14] deals with Mus musculus. As to the kind of experiment: Upregulation of LXRalpha regulated ApoE expression in C57BL/6JRj mouse liver at 30 mg/kg/day, po administered with drinking water measured after 2 weeks by qPCR method. It counts as functional, organism-based.
Data set [15] relates to Mus musculus. In words: In vivo transactivation of PPARgamma in C57BL/6JRj mouse assessed as increase in CD36 expression in liver at 30 mg/kg/day, po administered with drinking water measured after 2 weeks by qPCR method. The format is functional, organism-based.
The subject of data set [16] is Mus musculus. As to the kind of experiment: Upregulation of PPARalpha gene expression in C57BL/6JRj mouse liver at 30 mg/kg/day, po administered with drinking water after 2 weeks by qPCR method. It counts as functional, organism-based.
The test system of a further data set is HepG2. In words: Cytotoxicity against human HepG2 cells assessed as cell viability up to 30 uM after 48 hrs by WST-1 assay. It counts as cell-based. The conditions noted are these: hepg2, 48 h. A general note: Tetrazolium assays rely on reduction of a dye to a coloured formazan, in cell work by metabolically active cells.
For data set [17], the system named is Mus musculus. In words: Upregulation of LXRalpha regulated ABCA1 expression in C57BL/6JRj mouse liver at 30 mg/kg/day, po administered with drinking water measured after 2 weeks by qPCR method. The format is functional, organism-based.
The test system of data set [18] is Mus musculus. As to the kind of experiment: In vivo transactivation of PPARgamma in C57BL/6JRj mouse assessed as increase in LXRalpha expression in liver at 30 mg/kg/day, po administered with drinking water measured after 2 weeks by qPCR method. The format is functional, organism-based.

Structures are written as SMILES. Converted amounts (≈) assume the structure as drawn. The source made the active and inactive calls. The rule behind the calls is not given here.

On to `CCC(Cc1ccc(C(=O)NCc2ccc(OC)cc2C(F)(F)F)cc1)C(=O)O` (centres undefined), for which the Vd/F in data set [1] amounted to 2 L/kg. Besides, the result (in data set [2]; in [4]; in the data set with Mus musculus [9]; with Mus musculus [11]; in the data set with Mus musculus [12]; in the data set on Mus musculus [15]) was Active. Moreover, the result in the data set on Mus musculus [16] and in the data set with Mus musculus [18] was Active. In data set [3], the area under the curve AUC(0-inf) stood at 94.4 µg·h/mL. In addition, the Activity is 29% in data set [5] and “Non-toxic” with HepG2. Besides, in data set [6], the EC50 result is “Not Active”. Further, the apparent clearance CL/F in [7] was 0.3 L/h/kg. This molecule returned a solubility in data set [8] of 375 µM (≈ 154 µg/mL). In data set [10], the peak concentration (Cmax) is 29.1 µg/mL. Besides, in [13], the Drug metabolism entry is listed as “metabolite_detected”. In addition, the result in the data set with Mus musculus [14] and in the data set with Mus musculus [17] was inactive.

Broadly, the AUC(0-inf) is the area under the concentration-time curve extrapolated to infinity. As a reminder, the CL/F is clearance divided by bioavailability, as obtained after extravascular dosing. The solubility is the concentration that dissolves in the medium under given conditions. By Cmax is commonly meant the highest concentration seen after dosing.

The values above are taken from ChEMBL document CHEMBL3763124, “N-Benzylbenzamides: A Novel Merged Scaffold for Orally Available Dual Soluble Epoxide Hydrolase/Peroxisome Proliferator-Activated Receptor γ Modulators” (J Med Chem, 2016).
